In US7790896B2, “RNA-selective probes for live cell imaging of nuclear structure and function” (New York University, priority 2006, dated 2010):

Tests used:
[1] = Fluorescent properties of free dye solution; assay type: physicochemical; conditions: for EM (emission λmax), Buffer / EX (excitation λmax), Buffer: TE buffer pH 7.5, dye 5 μM; for ε free (extinction coefficient) / ΦF free (quantum yield): TE buffer pH 7.5, dye 5 μM for E36, 10 μM for E144 and F22; for ΦF free (quantum yield): Rhodamine 6G standard
Protocol: (§1) The fluorescence spectra data in the primary screening and selected dyes titration assay study was obtained by Gemini XS plate reader. RNA solution was prepared right before the assay experiments to avoid possible degradation and contamination. In the primary screening, 1 mg/mL RNA (type VI from torula yeast) buffer solution was used. Point scans were carried out first using five Ex/Em point sets ([…], 400/500, 450/550, 500/600, 550/650 nm). Spectra scans were then carried out for the selected dyes. Excitation wavelengths were set at 350 nm, 400 nm, 450 nm, 500 nm, and 550 nm and the emission wavelengths were scanned. RNA (16S- and 23S-ribosomal from E. coli) and DNA (salmon testes) titration experiments and quantum yield/extinction coefficient determination for the three best dyes were carried out by the plate reader as well. Excitation λmax obtained from F-2500 Hitachi Fluorophotometer was used. Absorbance wavelength was determined by SpectraMax Plus^384 absorbance plate reader. […] was chosen as standard and 480 nm was used as excitation wavelength in the scanning for quantum yield determination. […] Generally, the λmax (nm) of emission was determined by scanning a fixed excitation first, and the μmax (nm) of excitation was determined by scanning emission spectrum with a fixed μem (nm). The detailed fluorescent properties of three selected dyes including; excitation/emission μmax, the quantum yield and extinction coefficient of both free dye solution and dye-RNA solution were assessed (Table 5).

[2] = system: 3T3 fibroblast cells, 3T3-L1 adipocyte cells, Hela cells and A549 human lung carcinoma cells; test: Secondary screening: live cell nuclear imaging properties in four cell lines; assay type: cell-based, mouse; conditions: dye 25 μM
Protocol: All cell staining imaging followed the same procedure. Generally, dyes in dry state were first dissolved in DMSO to obtain the stock solution. The stock solutions were then added directly to the cell culture wells to reach the desired concentration. Total DMSO was lower than 0.1%. After adding dyes, cells were incubated at 37° C. in 5% CO2 for 25 minutes. The medium was then removed and cells were rinsed with fresh medium twice. The cells were then imaged at ambient temperature in the medium. Exposure time was kept less than 5 seconds and adjusted to each dye.
The selected compounds from both primary screens (total 88) were resynthesized in large scale and purified. The compounds' live cell nuclear imaging properties were then tested by four cell lines, including two mouse cell lines: 3T3 fibroblast cells and 3T3-L1 adipocyte cells; and two human cancer cell lines: Hela cells and A549 human lung carcinoma cells. Herein, the final dye concentration in each test was decreased to 25 μM and all the experiments were repeated to establish reproducibility. […] Each of the three dyes contained at least one high affinity nucleic acid functional group (Trotta et al., “Solution Structure of DAPI Selectively Bound in the Minor Groove of a DNA T-T Mismatch-Containing Site: NMR and Molecular Dynamics Studies,” Nucleic Acids Res. 26:4706-4713 (1998); Loontiens et al., “Binding Characteristics of Hoechst 33258 with Calf Thymus DNA, Poly[d(A-T)], and d(CCGGAATTCCGG): Multiple Stoichiometries and Determination of Tight Binding with a Wide Spectrum of Site Affinities,” Biochem. 29:9029-9039 (1990); Zipper et al., “Investigations on DNA Intercalation and Surface Binding by SYBR Green I, Its Structure Determination and Methodological Implications,” Nucleic Acid Res. 32:E103 (2004); Glazer et al., “Stable Dye-DNA Intercalation Complexes as Reagents for High-Sensitivity Fluorescence Detection,” Nature 359:859-861 (1992), which are hereby incorporated by reference in their entirety) in building block II such as the terminal secondary amine for F22 and F112, the trimethoxy for E 144, and the indole for E36.

[3] = system: RNA (16S- and 23S-ribosomal from E. coli); test: Fluorescent properties of dye-RNA solution; assay type: binding; conditions: for EM (emission λmax), RNA / EX (excitation λmax), RNA: TE buffer pH 7.5, dye 5 μM; for EM (emission λmax), RNA / EX (excitation λmax), RNA / ΦF RNA (quantum yield) / ε RNA (extinction coefficient): RNA 200 μg/mL; for ΦF RNA (quantum yield) / ε RNA (extinction coefficient): TE buffer pH 7.5, dye 5 μM for E36, 10 μM for E144 and F22; for ΦF RNA/ΦF free: ratio of quantum yields with RNA 200 μg/mL and free
Protocol: as §1

[4] = system: RNA, 16S- and 23S-ribosomal from E. coli; test: Dye concentration dependency titration with RNA; assay type: binding; conditions: dye 0.15 μM to 10 μM, RNA 50 μg/mL
Protocol: Samples containing 50 μg/mL RNA in TE buffer with an increasing concentration of compound from 0.15 μM to 10 μM. Shown here is the intensity increase recorded at the emission λmax wavelength of each dye. […] The samples contain fixed concentration of dyes (E36: 5 μM; E144: 10 μM; F22: 10 μM) in TE buffer with an increasing concentration of RNA or DNA from 0.19 μg/mL to 200 μg/mL. Data points were in duplicated in individual experiments, and error bars represent standard deviation.
(§2) The fluorescence spectra data in the primary screening and selected dyes titration assay study was obtained by Gemini XS plate reader. RNA solution was prepared right before the assay experiments to avoid possible degradation and contamination. In the primary screening, 1 mg/mL RNA (type VI from torula yeast) buffer solution was used. Point scans were carried out first using five Ex/Em point sets ([…], 400/500, 450/550, 500/600, 550/650 nm). Spectra scans were then carried out for the selected dyes. Excitation wavelengths were set at 350 nm, 400 nm, 450 nm, 500 nm, and 550 nm and the emission wavelengths were scanned. RNA (16S- and 23S-ribosomal from E. coli) and DNA (salmon testes) titration experiments and quantum yield/extinction coefficient determination for the three best dyes were carried out by the plate reader as well. Excitation λmax obtained from F-2500 Hitachi Fluorophotometer was used. Absorbance wavelength was determined by SpectraMax Plus^384 absorbance plate reader. […] was chosen as standard and 480 nm was used as excitation wavelength in the scanning for quantum yield determination.
The RNA binding characteristics of these dyes was further examined by determining if the fluorescent intensity was concentration dependent (FIG. 3A). […] Moreover, a slight emission Ma red shift was observed (total 8 nm) with the increasing concentration of E36.

[5] = system: RNA (Type VI from torula yeast); test: In vitro solution assay (primary screening): fluorescent emission fold change upon binding to RNA; conditions: dye 10 μM, RNA 500 μg/mL in TE buffer
Protocol: as §2
The screening strategy used in this study is illustrated in FIG. 2. Both in vitro RNA assays and live cell imaging methods were utilized in the primary screening of the dye library. Selective binding of the dye to RNA in solution was the primary criterion for selecting lead compounds for subsequent bioimaging studies, Herein, the library dyes' fluorescent emission intensity fold change upon binding to RNA was measured in solution. Dyes showing five-fold or higher emission changes in the presence of RNA were selected (Table 3). Note the dyes listed are identified by the building blocks I and II from Table 2. For example, A4 is the product made by reacting compound A from the list of Building block I and compound 4 from the list of Building block II.

SMILES | EM (emission λmax), Buffer [1] | EX (excitation λmax), Buffer [1] | ε free (extinction coefficient) [1] | ΦF free (quantum yield) [1] | Live cell nuclear imaging properties (basis of selection) [2] | EM (emission λmax), RNA [3] | EX (excitation λmax), RNA [3] | ΦF RNA (quantum yield) [3] | ε RNA (extinction coefficient) [3] | ΦF RNA/ΦF free [3] | Emission λmax red shift with increasing dye concentration [4] | Fluorescent intensity vs dye concentration (titration curve) [4] | Em(nm) [5] | Ex(nm) [5] | Fold (fluorescent emission fold changes to RNA) [5]
C[n+]1c(/C=C/c2c[nH]c3ccccc23)ccc2ccccc21 [Dye E36] | 541 nm | 457 nm | 39400 M⁻¹ cm⁻¹ | 0.0019 | selective nucleolar targeting, high fluorescence intensity, low photobleaching, and low cellular toxicity | 548 nm | 497 nm | 0.1041 | 43100 M⁻¹ cm⁻¹ | 54.6 | 8 nm | evidence of saturation at high concentration | – | – | –
COc1ccc2c(ccc(/C=C/c3ccc(N(C)C)cc3)[n+]2C)c1 [Dye F22] | 598 nm | 492 nm | 17400 M⁻¹ cm⁻¹ | 0.0007 | selective nucleolar targeting, high fluorescence intensity, low photobleaching, and low cellular toxicity | 620 nm | 548 nm | 0.0075 | 20000 M⁻¹ cm⁻¹ | 10.7 | did not show obvious wavelength shift | evidence of saturation at high concentration | 640 nm | 500 nm | 23
COc1cc(OC)c(/C=C/c2ccc3ccccc3[n+]2C)c(OC)c1 [Dye E144] | 532 nm | 440 nm | 13200 M⁻¹ cm⁻¹ | 0.0056 | selective nucleolar targeting, high fluorescence intensity, low photobleaching, and low cellular toxicity | 532 nm | 456 nm | 0.0310 | 14600 M⁻¹ cm⁻¹ | 5.5 | did not show obvious wavelength shift | almost linear curve | 540 nm | 450 nm | 5
